According to US20110098288A1, “SULFONAMIDES AS ZAP-70 INHIBITORS” (priority 2008, published 2011):
Where a name gives a salt, the structure may show the parent alone.

Molecular target: T1, ZAP-70 (Homo sapiens, UniProt P43403)
T1 construct: endogenous in cells; host or cells: cell lysate
T1 sequence (P43403 1-619): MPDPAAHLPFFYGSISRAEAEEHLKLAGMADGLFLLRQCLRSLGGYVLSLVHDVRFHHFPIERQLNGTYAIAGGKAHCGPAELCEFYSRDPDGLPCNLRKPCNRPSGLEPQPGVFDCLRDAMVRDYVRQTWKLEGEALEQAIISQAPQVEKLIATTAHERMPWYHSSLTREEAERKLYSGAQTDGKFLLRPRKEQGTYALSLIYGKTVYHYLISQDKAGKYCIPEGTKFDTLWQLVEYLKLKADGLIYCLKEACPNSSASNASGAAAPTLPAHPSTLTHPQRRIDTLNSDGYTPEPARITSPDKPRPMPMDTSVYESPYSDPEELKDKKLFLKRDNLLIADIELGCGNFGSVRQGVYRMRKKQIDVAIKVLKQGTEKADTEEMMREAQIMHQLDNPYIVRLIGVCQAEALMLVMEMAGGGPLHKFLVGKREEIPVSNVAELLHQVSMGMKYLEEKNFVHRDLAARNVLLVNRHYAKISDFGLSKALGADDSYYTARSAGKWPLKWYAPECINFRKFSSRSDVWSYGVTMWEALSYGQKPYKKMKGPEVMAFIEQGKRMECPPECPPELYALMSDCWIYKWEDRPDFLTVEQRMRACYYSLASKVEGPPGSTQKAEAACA
Assay: ZAP-70 kinobeads assay
Type: binding
Settings: competition with immobilized aminopyrido-pyrimidine ligand 24 in cell lysate; ZAP-70 detected by dot blot
Method: The compounds of the present invention as described in the previous examples can be tested in the ZAP-70 kinobeads assay as described (EP-A 1862802 and WO-A 2007/137867). Briefly, test compounds (at various concentrations) and the affinity matrix with the immobilized aminopyrido-pyrimidine ligand 24 are added to cell lysate aliquots and allowed to bind to the proteins in the lysate sample. After the incubation time the beads with captured proteins are separated from the lysate. Bound proteins are then eluted and the presence ZAP-70 is detected and quantified using a specific antibody in a dot blot procedure and the Odyssey infrared detection system. Conventionally, ZAP-70 kinase activity can be measured using purified or recombinant enzyme in a solution-based assay with protein or peptide substrates (Isakov et al., 1996, J. Biol. Chem. 271(26), 15753-15761; Moffat et al., 1999, Bioorg. Med. Chem. Letters 9, 3351-3356).

Row | Structure (SMILES) | IC50
1 | CN(C)C(=O)c1cccc(Nc2ncc(F)c(Nc3ccccc3NS(C)(=O)=O)n2)c1 [Example 84, 3-(5-fluoro-4-(2-(methylsulfonamido)phenylamino)pyrimidin-2-ylamino)-N,N-dimethylbenzamide] | 100 to 1000 nM
2 | COc1ccc(Nc2ncc(F)c(Nc3ccccc3N(C)S(C)(=O)=O)n2)cc1OC [Example 109, N-(2-(2-(3,4-dimethoxyphenylamino)-5-fluoropyrimidin-4-ylamino)phenyl)-N-methylmethanesulfonamide] | 100 to 1000 nM
3 | COc1ccc(Nc2nc(Nc3cc(OC)c(OC)c(OC)c3)ncc2F)c(NS(C)(=O)=O)c1C [Example 163, N-(6-(5-fluoro-2-(3,4,5-trimethoxyphenylamino)pyrimidin-4-ylamino)-3-methoxy-2-methylphenyl)methanesulfonamide] | 100 to 1000 nM
4 | COc1cc(Nc2ncc(F)c(Nc3cccc(NS(=O)(=O)CC(F)(F)F)c3)n2)cc(OC)c1OC [Example 60, 2,2,2-trifluoro-N-(3-(5-fluoro-2-(3,4,5-trimethoxyphenylamino)pyrimidin-4-ylamino)phenyl)ethanesulfonamide] | 1000 to 10000 nM
5 | COc1ccc(Nc2nc(Nc3ccc(OC)c(OC)c3)ncc2Cl)c(NS(C)(=O)=O)c1 [Example 153, N-(2-(5-chloro-2-(3,4-dimethoxyphenylamino)pyrimidin-4-ylamino)-5-methoxyphenyl)methanesulfonamide] | < 100 nM
6 | CCOc1cccc(Nc2ncc(F)c(Nc3ccccc3NS(C)(=O)=O)n2)c1 [Example 13, N-(2-(2-(3-ethoxyphenylamino)-5-fluoropyrimidin-4-ylamino)phenyl)methanesulfonamide] | 1000 to 10000 nM
7 | Cc1ccc(C)n1-c1cccc(Nc2ncc(F)c(Nc3ccccc3NS(C)(=O)=O)n2)c1 [Example 202, N-(2-(2-(3-(2,5-dimethyl-1H-pyrrol-1-yl)phenylamino)-5-fluoropyrimidin-4-ylamino)phenyl)methanesulfonamide] | 1000 to 10000 nM
8 | Cc1nnnn1-c1cccc(Nc2ncc(F)c(Nc3ccccc3NS(C)(=O)=O)n2)c1 [Example 194, N-(2-(5-fluoro-2-(3-(5-methyl-1H-tetrazol-1-yl)phenylamino)pyrimidin-4-ylamino)phenyl)methanesulfonamide] | 1000 to 10000 nM
9 | CS(=O)(=O)Nc1ccccc1Nc1nc(Nc2cccc(N3CCCC3)c2)ncc1F [Example 85, N-(2-(5-fluoro-2-(3-(pyrrolidin-1-yl)phenylamino)pyrimidin-4-ylamino)phenyl)methanesulfonamide] | 1000 to 10000 nM
10 | CS(=O)(=O)Nc1ccccc1Nc1nc(Nc2cccc(F)c2)ncc1F [Example 6, N-(2-(5-fluoro-2-(3-fluorophenylamino)pyrimidin-4-ylamino)phenyl)methanesulfonamide] | 1000 to 10000 nM
11 | Cc1nc(-c2cccc(Nc3ncc(F)c(Nc4ccccc4NS(C)(=O)=O)n3)c2)no1 [Example 189, N-(2-(5-fluoro-2-(3-(5-methyl-1,2,4-oxadiazol-3-yl)phenylamino)pyrimidin-4-ylamino)phenyl)methanesulfonamide] | 1000 to 10000 nM
12 | CS(=O)(=O)Nc1ccccc1Nc1nc(Nc2ccc(-n3cncn3)cc2)ncc1F [Example 198, N-(2-(2-(4-(1H-1,2,4-triazol-1-yl)phenylamino)-5-fluoropyrimidin-4-ylamino)phenyl)methanesulfonamide] | 100 to 1000 nM
13 | CCN(CC)C(=O)c1cccc(Nc2ncc(F)c(Nc3ccccc3NS(C)(=O)=O)n2)c1 [Example 81, N,N-diethyl-3-(5-fluoro-4-(2-(methylsulfonamido)phenylamino)pyrimidin-2-ylamino)benzamide] | 1000 to 10000 nM
14 | COc1cc(Nc2ncc(F)c(Nc3cccc(C)c3N(C)S(C)(=O)=O)n2)cc(OC)c1OC [Example 181, N-(2-(5-fluoro-2-(3,4,5-trimethoxyphenylamino)pyrimidin-4-ylamino)-6-methylphenyl)-N-methylmethanesulfonamide] | 100 to 1000 nM
15 | Cc1nnc(-c2cccc(Nc3ncc(F)c(Nc4ccccc4NS(C)(=O)=O)n3)c2)[nH]1 [Example 24, N-(2-(5-fluoro-2-(3-(5-methyl-4H-1,2,4-triazol-3-yl)phenylamino)pyrimidin-4-ylamino)phenyl)methanesulfonamide] | 1000 to 10000 nM
16 | CNC(=O)c1cccc(Nc2ncc(F)c(Nc3ccccc3NS(C)(=O)=O)n2)c1 [Example 80, 3-(5-fluoro-4-(2-(methylsulfonamido)phenylamino)pyrimidin-2-ylamino)-N-methylbenzamide] | 1000 to 10000 nM
17 | CS(=O)(=O)Nc1ccccc1Nc1nc(Nc2cccc(OCC(=O)O)c2)ncc1F [Example 99, 2-(3-(5-fluoro-4-(2-(methylsulfonamido)phenylamino)pyrimidin-2-ylamino)phenoxy)acetic acid hydrochloride] | 100 to 1000 nM
18 | COc1cc(Nc2ncc(F)c(Nc3cccc(C)c3NS(C)(=O)=O)n2)cc(OCC(C)C)c1OC [Example 119, N-(2-(5-fluoro-2-(3-isobutoxy-4,5-dimethoxyphenylamino)pyrimidin-4-ylamino)-6-methylphenyl)methanesulfonamide] | 100 to 1000 nM
19 | CC(C)OC(=O)COc1ccc(Nc2ncc(Cl)c(Nc3ccccc3NS(C)(=O)=O)n2)cc1 [Example 143, Isopropyl 2-(4-(5-chloro-4-(2-(methylsulfonamido)phenylamino)pyrimidin-2-ylamino)-phenoxy)acetate hydrochloride] | 100 to 1000 nM
20 | COc1cc(Nc2ncc(F)c(Nc3ccccc3N(C)S(C)(=O)=O)n2)cc(OC)c1OC [Example 71, N-(2-(5-fluoro-2-(3,4,5-trimethoxyphenylamino)pyrimidin-4-ylamino)phenyl)-N-methylmethanesulfonamide] | 100 to 1000 nM
21 | Cc1n[nH]c(-c2cccc(Nc3ncc(Cl)c(Nc4ccccc4NS(C)(=O)=O)n3)c2)n1 [Example 213, N-(2-(5-chloro-2-(3-(3-methyl-1H-1,2,4-triazol-5-yl)phenylamino)pyrimidin-4-ylamino)phenyl)methanesulfonamide] | 100 to 1000 nM
22 | COc1cc(Nc2ncc(F)c(Nc3cccc(NS(=O)(=O)CCN(C)C)c3)n2)cc(OC)c1OC [Example 65, 2-(Dimethylamino)-N-(3-(5-fluoro-2-(3,4,5-trimethoxyphenylamino)pyrimidin-4-ylamino)phenyl)ethanesulfonamide] | 1000 to 10000 nM
23 | COc1cc(Nc2ncc(F)c(Nc3ccccc3NS(C)(=O)=O)n2)cc(OCCN2CCCC2)c1OC [Example 74, N-(2-(2-(3,4-dimethoxy-5-(2-(pyrrolidin-1-yl)ethoxy)phenylamino)-5-fluoropyrimidin-4-ylamino)phenyl)methanesulfonamide] | 100 to 1000 nM
24 | Cc1nc(-c2ccc(Nc3ncc(F)c(Nc4ccccc4NS(C)(=O)=O)n3)cc2)cs1 [Example 192, N-(2-(5-fluoro-2-(4-(2-methylthiazol-4-yl)phenylamino)pyrimidin-4-ylamino)phenyl)methanesulfonamide] | 1000 to 10000 nM
25 | CN(c1ccccc1Nc1nc(Nc2ccc(OCCN3CCOCC3)cc2)ncc1F)S(C)(=O)=O [Example 111, N-(2-(5-fluoro-2-(4-(2-morpholinoethoxy)phenylamino)pyrimidin-4-ylamino)phenyl)-N-methylmethanesulfonamide] | 100 to 1000 nM
26 | CSc1cccc(Nc2ncc(F)c(Nc3ccccc3NS(C)(=O)=O)n2)c1 [Example 15, N-(2-(5-fluoro-2-(3-(methylthio)phenylamino)pyrimidin-4-ylamino)phenyl)methanesulfonamide] | 1000 to 10000 nM
27 | COc1cc(Nc2ncc(F)c(Nc3cc(F)c(F)cc3NS(C)(=O)=O)n2)cc(OC)c1OC [Example 174, N-(4,5-difluoro-2-(5-fluoro-2-(3,4,5-trimethoxyphenylamino)pyrimidin-4-ylamino)phenyl)methanesulfonamide] | 1000 to 10000 nM
28 | Cn1ccc(-c2cccc(Nc3ncc(F)c(Nc4ccccc4NS(C)(=O)=O)n3)c2)n1 [Example 201, N-(2-(5-fluoro-2-(3-(1-methyl-1H-pyrazol-3-yl)phenylamino)pyrimidin-4-ylamino)phenyl)methanesulfonamide] | 1000 to 10000 nM
